Converted amounts (≈) assume the structure as drawn.
Tests used:
[1] = Antiviral potency, comparison of isomers (no method given); details: as compared with the (R)-isomer
[2] = system: Visna Virus (K184 strain in SCP cells); test: CPE inhibition test (established monolayer) for lentiviruses; format: cell-based; details: Visna-maedi virus
Protocol: 3 x 10⁴ sheep choroid plexus (SCP) cells were plated into individual wells of a 96 well microtitre plate in 100µl of Eagle's MEM with Hanks salts containing 10% heat inactivated foetal calf serum (FCS). When monolayers had become established (after l or 2 days growth) they were washed with 200µl of maintenance medium (Eagle's MEM with Hanks salts containing 0.5% FCS) and infected with 100µl of visna virus (strain K184) in maintenance medium (30 TCID₅₀/ml). Test samples were diluted with maintenance medium in further 96 well microtitre plates over the range 200-0.09µg/ml by 3-fold dilution steps. 100µl of the diluted samples was then transferred directly onto virus-infected monolayers (final concentration range therefore 100-0.045µg/ml) and incubated at 37°C in a humidified, 5% CO₂ incubation until virus-induced CPE was maximal in the untreated virus-infected controls (usually 12-14 days). The plates were fixed with formal saline and stained with crystal violet. Virus-induced CPE was then scored microscopically and the minimum concentration of sample giving complete protection of the cell monolayers (MIC) determined.

[3] = system: HSV-1 (SC16 strain, MRC-5 cells); test: Plaque reduction test for herpes simplex virus 1; format: cell-based; details: Human alphaherpesvirus 1, MRC5, plaque number reduced by 50%
[4] = system: HSV-2 (MS strain, MRC-5 cells); test: Plaque reduction test for herpes simplex virus 2; format: cell-based; details: Human alphaherpesvirus 2, MRC5, plaque number reduced by 50%
Protocol: Cells (Vero or MRC-5) were grown to confluence in 24 well multi-dishes (well diameter = 1.5cm). The drained cell monolayers were each infected with approximately 50 infectious particles of herpes simplex virus 1 (HSV-1; strain HFEM) or herpes simplex virus 2 (HSV-2; strain MS) in 100µl of phosphate-buffered saline. The virus was adsorbed for 1 hour at room temperature. After adsorption, residual inoculum was removed from each well and replaced with 0.5ml of Eagle's MEM containing 5% newborn calf serum and 0.9% agarose (A37). Once the agarose had set, dilutions of the test compound, which had been prepared in Eagle's MEM (containing 5% newborn calf serum), were added, each well receiving 0.5ml of liquid overlay. The test compound was diluted to give the following series of concentrations: 200, 60, 20, 6....0.06µg/ml; final concentrations in the assay ranged, therefore, between 100µg/ml and 0.03µg/ml. […]
Cultures were fixed in formal saline, the agarose overlays were carefully washed off, and then the cell monolayers were stained with carbol fuchsin. […] The IC₅₀ (concentration to drug which inhibits plaque number by 50% relative to the number of plaques observed in virus control monolayers) of the test compound was calculated. In addition, the monolayers were examined for evidence of drug-induced cytotoxicity; the minimum concentration at which cytotoxicity occurs was recorded.

[5] = Drug-induced cytotoxicity in uninfected cell monolayers; format: cell-based; details: uninfected cells, not cytotoxic at concentrations up to 100 µg/ml, read-out: concentration at which cytotoxicity occurs
Protocol: Cultures were fixed in formal saline, the agarose overlays were carefully washed off, and then the cell monolayers were stained with carbol fuchsin. A stereo microscope was used to count plaques. The IC₅₀ (concentration to drug which inhibits plaque number by 50% relative to the number of plaques observed in virus control monolayers) of the test compound was calculated. In addition, the monolayers were examined for evidence of drug-induced cytotoxicity; the minimum concentration at which cytotoxicity occurs was recorded.

Compound | potency as an antiviral agent [1] | IC50 [2] [µg/mL] | IC50 [3] [µg/mL] | IC50 [4] [µg/mL] | MCC [5] [µg/mL]
Nc1ncc2ncn(OC[C@@H](O)CO)c2n1 [Example, (S)-2-Amino-9-(2,3-dihydroxyprop-l-oxy)purine] | greater potency |  |  |  | 
Nc1nc2c(ncn2OC[C@@H](O)CO)c(=O)[nH]1 [Preparation Example, (S)-9-(2,3-Dihydroxyprop-1-oxy)quanine] |  | 10 (≈ 41.5 µM) | 0.7 (≈ 2.9 µM) | 0.06 (≈ 0.249 µM) | > 100
